Experimental data published in PubChem BioAssay AID1963835 (Molecular Pharmacology Branch, DTP, NCI, 2024).
Values joined by “and” are separate entries in the source; they are usually repeats but may differ in a detail not shown here. Equal entries are not always repeated.

Tested on: 699152-130-R-J1-PDC complex spheroid viability
Test: Anticancer human tumor 699152-130-R-J1-PDC patient-derived pancreatic carcinoma cell line growth inhibition [POLQ]
Conditions: for viability, T/C: stronger effect = lower value
Procedure: Multicellular complex tumor spheroid response to Polymerase (POL) inhibitors (novobiocin, ART-558, RP6685) in combination with a variety of drugs and investigational agents in selected tumor cell lines
The POL inhibitors (novobiocin, ART-558, and RP6685) were evaluated both individually and in combination with standard of care and investigational anticancer small molecules within a complex spheroid model of solid tumors. . Complex spheroids include a stromal component modeled by human endothelial cells (HUVEC) and fibroblasts modeled by human mesenchymal stem cells (MSCs). The concentration ranges selected for each drug and investigational agent were based upon clinically achievable concentrations if the clinical Cmax of the agent was known.
Compounds. The drugs and investigational agents: novobiocin (NSC847541), ART-558 (NSC835418), RP-6685 (NSC848927), peposertib (NSC802822), ceralasertib (NSC780249), elimusertib (NSC800525), camonsertib (NSC841442), AZD-1390 (NSC803789), olaparib (NSC753686), talazoparib (NSC767125), rucaparib (NSC756644), sotorasib (NSC818433), MRTX-1133 (NSC836407), SN-38 (NSC673596), topotecan (NSC609699), epotoside (NSC141540), doxorubicin (NSC123127), gemcitabine (NSC613327), 5-fluorouracil (NSC19893), paclitaxel (NSC125973), vemurafenib (NSC761431), MSA-2 (NSC828583), SN-011 (NSC837082), adavosertib (NSC754352), prexasertib (NSC758257), carboplatin (NSC241240) and oxaliplatin (NSC266046), were obtained from the National Cancer Institute (NCI) Developmental Therapeutics Program Chemical Repository (21). The FDA-approved anticancer drug set is available from the Developmental Therapeutics Program at https://dtp.cancer.gov/organization/dscb/obtaining/. […] The stock solutions were prepared in dimethyl sulfoxide (DMSO, Sigma-Aldrich, St. Louis, MO, cat. D2650), except for the platinum compounds which were prepared in saline (Quality Biological, Gaithersburg, MD, cat. 114-055-101), at 800-fold the tested concentration and stored at -70 degrees C prior to their use. All drugs and investigational agents were tested over a range starting from a high concentration at or near the clinical Cmax and decreasing in half-log increments. If the clinical Cmax for an agent had not been determined, the highest concentration tested was 10 microM, except for SN-38, which was tested at a high concentration of 1 microM.
Cell Culture. All cells were maintained in an incubator at 37 degrees C and 5% CO2 with 95% humidity. The PDC lines were cultured according to standard operating procedures established by the NCI PDMR (https://pdmr.cancer.gov). Table 3 of the manuscript, lists the cell lines along with the number of the three cell types plated to form the mct-spheroids and media for tumor cell growth. After thawing, all PDC lines, except 997537-175-T-J1-PDC and 415267-285-R-J2-PDC, were cultured in Matrigel-coated flasks prepared with a working solution of 1X Ham's F-12 nutrient mix, without supplementation (Thermo Fisher Scientific, cat. 11765054), 100 U/mL penicillin-streptomycin (Thermo Fisher Scientific, cat. 15140122), and 2.5% Matrigel (Corning Inc., Corning, NY, cat. 354248) for the first three passages. The two PDC lines 997537-175-T-J1-PDC and 415267-285-R-J2-PDC were cultured on uncoated flasks. The 857933-349-R-J2-PDC line was cultured in 6C/Colon 1B media containing advanced DMEM/F-12 (Thermo Fisher Scientific, cat. 12634028), 10 mM HEPES (Thermo Fisher Scientific, cat. 15630080), 1X GlutaMAX supplement (Thermo Fisher Scientific, cat. 35050061), 0.1 mg/mL primocin (InvivoGen, San Diego, CA, cat. ant-pm-2), 10% defined fetal bovine serum, heat inactivated (HyClone Laboratories Inc., Logan, UT, cat. SH30070.03HI), 50% L-WRN conditioned media (ATCC, cat. CRL-3276), 1.25 mM N-Acetyl-L-cysteine (Sigma-Aldrich, cat. A9165), 10 mM nicotinamide (Sigma-Aldrich, cat. N0636), 1X B-27 supplement (Thermo Fisher Scientific, cat. 17504044), 1X N-2 supplement (Thermo Fisher Scientific, cat. […]
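Note: spheroids exposed to agents for 7 days before viability reading.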
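Throughout, for viability, T/C: percent of DMSO vehicle control viability so 100% = vehicle and 0% = no viable signal.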

With `COc1cccc2c1C(=O)c1c(O)c3c(c(O)c1C2=O)CC(O)(C(=O)CO)CC3OC1CC(N)C(O)C(C)O1` (stereo not drawn) the viability, T/C (compound 0.0316 µM) was 72.5% and 86.9% and 85.1%, the viability, T/C (compound 0.1 µM) was 60.1% and 60.5% and 89.2% and the viability, T/C (compound 0.316 µM) was 48.5% and 51.9% and 44.8%. For the same compound, the viability, T/C (compound 1 µM) was 31.2% and 30.2% and 27.1%, the viability, T/C (compound 3.16 µM) was 2.58% and 1.68% and 2.6% and the viability, T/C (compound 10 µM) was 11.1% and 13.1% and 12.4%. The IC50 (curve of compound) was 286 nM and 257 nM and 320 nM.
With `CC(=O)O[C@H]1C(=O)[C@@]2(C)[C@H]([C@H](OC(=O)c3ccccc3)[C@]3(O)C[C@H](OC(=O)[C@H](O)[C@@H](NC(=O)c4ccccc4)c4ccccc4)C(C)=C1C3(C)C)[C@]1(OC(C)=O)CO[C@@H]1C[C@@H]2O` the viability, T/C (compound 0.00949 µM) was 71.7% and 80.5% and 82.2%, the viability, T/C (compound 0.03 µM) was 56% and 69.6% and 61.2% and the viability, T/C (compound 0.0949 µM) was 54.2% and 56.2% and 58.5%. For the same compound, the viability, T/C (compound 0.3 µM) was 62% and 62.2% and 59.9%, the viability, T/C (compound 0.949 µM) was 66.9% and 69% and 60% and the viability, T/C (compound 3 µM) was 70.2% and 72.3% and 64.6%. The IC50 (curve of compound) was greater than 3000 nM.
With `Nc1ccn(C2OC(CO)C(O)C2(F)F)c(=O)n1` (stereo not drawn) the viability, T/C (compound 0.0316 µM) was 68.9% and 75.2% and 66%, the viability, T/C (compound 0.1 µM) was 63.8% and 57.4% and 54.5% and the viability, T/C (compound 0.316 µM) was 54.8% and 51.7% and 52.1%. For the same compound, the viability, T/C (compound 1 µM) was 49.3% and 52.1% and 41.2%, the viability, T/C (compound 3.16 µM) was 44.3% and 51.1% and 40.1% and the viability, T/C (compound 10 µM) was 39.6% and 44.7% and 36%. For the same compound, the IC50 (curve of compound) was 917 nM and 786 nM and 277 nM.
`Cn1ncnc1[C@H]1c2n[nH]c(=O)c3cc(F)cc(c23)N[C@@H]1c1ccc(F)cc1` + COC1C(OC(N)=O)C(O)C(Oc2ccc3c(O)c(NC(=O)c4ccc(O)c(CC=C(C)C)c4)c(=O)oc3c2C)OC1(C)C was tested, and the IC50 (curve of first compound, second compound 0.0316 µM) was greater than 100 nM, the IC50 (curve of first compound, second compound 0.1 µM) was greater than 100 nM and the IC50 (curve of first compound, second compound 0.316 µM) was greater than 100 nM. The IC50 (curve of first compound, second compound 1 µM) was greater than 100 nM, the IC50 (curve of first compound, second compound 3.16 µM) was greater than 100 nM and the IC50 (curve of first compound, second compound 10 µM) was greater than 100 nM. For the same compound, the viability, T/C (second compound 0.0316 µM, first compound 0.000316 µM) was 114%, the viability, T/C (second compound 0.0316 µM, first compound 0.001 µM) was 86.2% and the viability, T/C (second compound 0.0316 µM, first compound 0.00316 µM) was 101%. For the same compound, the viability, T/C (second compound 0.0316 µM, first compound 0.01 µM) was 93.4%, the viability, T/C (second compound 0.0316 µM, first compound 0.0316 µM) was 92.9% and the viability, T/C (second compound 0.0316 µM, first compound 0.1 µM) was 84.8%. For the same compound, the viability, T/C (second compound 0.1 µM, first compound 0.000316 µM) was 102%, the viability, T/C (second compound 0.1 µM, first compound 0.001 µM) was 105% and the viability, T/C (second compound 0.1 µM, first compound 0.00316 µM) was 87.1%. The viability, T/C (second compound 0.1 µM, first compound 0.01 µM) was 111%, the viability, T/C (second compound 0.1 µM, first compound 0.0316 µM) was 85% and the viability, T/C (second compound 0.1 µM, first compound 0.1 µM) was 80%. For the same compound, the viability, T/C (second compound 0.316 µM, first compound 0.000316 µM) was 101%, the viability, T/C (second compound 0.316 µM, first compound 0.001 µM) was 99.5% and the viability, T/C (second compound 0.316 µM, first compound 0.00316 µM) was 92.3%. The viability, T/C (second compound 0.316 µM, first compound 0.01 µM) was 103%, the viability, T/C (second compound 0.316 µM, first compound 0.0316 µM) was 87.8% and the viability, T/C (second compound 0.316 µM, first compound 0.1 µM) was 83.6%. For the same compound, the viability, T/C (second compound 1 µM, first compound 0.000316 µM) was 119%, the viability, T/C (second compound 1 µM, first compound 0.001 µM) was 107% and the viability, T/C (second compound 1 µM, first compound 0.00316 µM) was 101%. For the same compound, the viability, T/C (second compound 1 µM, first compound 0.01 µM) was 102%, the viability, T/C (second compound 1 µM, first compound 0.0316 µM) was 93.9% and the viability, T/C (second compound 1 µM, first compound 0.1 µM) was 82.5%. It also gave a viability, T/C (second compound 3.16 µM, first compound 0.000316 µM) of 95.3%, a viability, T/C (second compound 3.16 µM, first compound 0.001 µM) of 89.3% and a viability, T/C (second compound 3.16 µM, first compound 0.00316 µM) of 90.9%. For the same compound, the viability, T/C (second compound 3.16 µM, first compound 0.01 µM) was 96.9%, the viability, T/C (second compound 3.16 µM, first compound 0.0316 µM) was 90.8% and the viability, T/C (second compound 3.16 µM, first compound 0.1 µM) was 80.8%. The viability, T/C (second compound 10 µM, first compound 0.000316 µM) was 98.7%, the viability, T/C (second compound 10 µM, first compound 0.001 µM) was 105% and the viability, T/C (second compound 10 µM, first compound 0.00316 µM) was 93.9%. It also gave a viability, T/C (second compound 10 µM, first compound 0.01 µM) of 103%, a viability, T/C (second compound 10 µM, first compound 0.0316 µM) of 88.4% and a viability, T/C (second compound 10 µM, first compound 0.1 µM) of 90.4%.
